The results in this text go back to patent US20180298053A1, “ANTIBIOTIC OLIGOPEPTIDES” (priority 2017, published 2018).

Where a name gives a salt, the structure may show the parent alone. Square brackets hold non-standard residues; d marks the D form. Peptide text beside a SMILES is read from it. * marks the point of attachment. ξ: configuration not given here. ξF = NC(Cc1ccccc1)C(=O)O; NHOH = ON*

The test system of the test is E. coli (ATTC 8739). Nature of the test: Zone of inhibition test. It counts as cell-based. As to conditions: at 12.5 μg, FIG. 1B. Here is the method:
Compound A was tested against L-phenylalanine-(S)-2-amino-N-hydroxy-4-(methylthio)butanamide hydrochloride (Example 3) in a side-by-side comparison in a conventional zone of inhibition test. In this test, both compounds were compared at various concentrations against E. coli (ATTC 8739) grown in a Petri dish using the antibiotic kanamycin as a control.

On to `CSCC[C@H](NC(=O)C(N)Cc1ccccc1)C(=O)NO` (stereo partly drawn) [Example 3, L-phenylalanine-(S)-2-amino-N-hydroxy-4-(methylthio)butanamide Hydrochloride] (H-[ξF]-Met-{NHOH}), for which the “strength of zone of inhibition compared with cpd. A at 50 μg” value is “substantially stronger”.
